Source: patent US20120324604A1, “PESTICIDAL MIXTURES CONTAINING ISOXAZOLINE DERIVATIVES AND A FUNGICIDE” (priority 2010, published 2012)
Where “and” joins values, the source holds several entries; their conditions need not be identical. Identical values can stand only once.

Tests used:
Assay type in all cases: cell-based
Rhizoctonia solani = Rhizoctonia solani (Foot Rot, Damping-Off) growth inhibition, microtiter plate, photometric
Protocol: Rhizoctonia solani (Foot Rot, Damping-Off):
Mycelial fragments of the fungus from cryogenic storage were directly mixed into nutrient broth (potato dextrose broth). After placing a (DMSO) solution of the test compounds into a microtiter plate (96-well format) the nutrient broth containing the fungal spores was added.

Gaeumannomyces graminis = Gaeumannomyces graminis growth inhibition, microtiter plate, photometric
Protocol: Mycelial fragments of the fungus from cryogenic storage were directly mixed into nutrient broth (potato dextrose broth). After placing a (DMSO) solution of the test compounds into a microliter plate (96-well format) the nutrient broth containing the fungal spores was added.

[1] = test system: Glomerella lagenarium (syn. Colletotrichum lagenarium); experiment: Glomerella lagenarium (Anthracnose of Cucurbits) growth inhibition, microtiter plate, photometric; settings: alone
Protocol: Glomerella lagenarium (syn. Colletotrichum lagenarium), Anthracnose of Cucurbits:
(§1) Conidia of the fungus from cryogenic storage were directly mixed into nutrient broth (potato dextrose broth). After placing a (DMSO) solution of the test compounds into a microtiter plate (96-well format) the nutrient broth containing the fungal spores was added.

Septoria tritici = Septoria tritici (Leaf Blotch) growth inhibition, microtiter plate, photometric
Protocol: Septoria tritici (Leaf Blotch):
as §1

[2] = test system: Mycosphaerella arachidis (syn. Cercospora arachidicola); experiment: Mycosphaerella arachidis (Brown Leaf Spot of Groundnut) growth inhibition, microtiter plate, photometric; settings: alone
Protocol: Mycosphaerella arachidis (syn. Cercospora arachidicola), Brown Leaf Spot of Groundnut (Peanut):
as §1

Fusarium culmorum = Fusarium culmorum (Root Rot) growth inhibition, microtiter plate, photometric
Protocol: Fusarium culmorum (Root Rot):
as §1

Pythium ultimum = Pythium ultimum (Damping Off) growth inhibition, microtiter plate, photometric
Protocol: Pythium ultimum (Damping Off):
Mycelial fragments of the fungus, prepared from a fresh liquid culture, were directly mixed into nutrient broth (potato dextrose broth). After placing a (DMSO) solution of the test compounds into a microtiter plate (96-well format) the nutrient broth containing the fungal spores was added.

[3] = single compound at 0.125 ppm AI

CC1COC(Cn2cncn2)(c2ccc(Oc3ccc(Cl)cc3)cc2Cl)O1 (stereo not drawn) [Difenoconazole]
70% and 90%: AVERAGE DEAD IN % Difenoconazole (Septoria tritici; Difenoconazole alone, 0.125 ppm AI) | AVERAGE DEAD IN % Difenoconazole (Septoria tritici; Difenoconazole alone, 0.25 ppm AI)
50% and 90%: AVERAGE DEAD IN % ([2]; 0.015625 PPM AI)
0%: AVERAGE DEAD IN % (Gaeumannomyces graminis; single compound at 0.25 ppm AI) | AVERAGE DEAD IN % (Gaeumannomyces graminis; single compound at 0.5 ppm AI) | AVERAGE DEAD IN % Difenoconazole (Septoria tritici; Difenoconazole alone, 0.0078125 ppm AI) | AVERAGE DEAD IN % Difenoconazole (Septoria tritici; Difenoconazole alone, 0.015625 ppm AI) | AVERAGE DEAD IN % ([2]; 0.00390625 ppm AI) | AVERAGE DEAD IN % ([2]; 0.00390625 PPM AI)
20%: AVERAGE DEAD IN % (Rhizoctonia solani; applied alone, 0.25 ppm AI) | AVERAGE DEAD IN % (Gaeumannomyces graminis; single compound at 1 ppm AI) | AVERAGE DEAD IN % ([1]; 0.5 ppm AI) | AVERAGE DEAD IN % ([1]; 1 ppm AI) | AVERAGE DEAD IN % (Fusarium culmorum; alone, 0.25 PPM AI) | AVERAGE DEAD IN % (Fusarium culmorum; alone, 0.5 PPM AI) | AVERAGE DEAD IN % (Fusarium culmorum; alone, 1 PPM AI) | AVERAGE DEAD IN % (Fusarium culmorum; single compound, 0.25 PPM AI, 48 hrs, 24° C.) | AVERAGE DEAD IN % (Fusarium culmorum; single compound, 0.5 PPM AI, 48 hrs, 24° C.)
90%: AVERAGE DEAD IN % (Gaeumannomyces graminis; single compound at 2 ppm AI) | AVERAGE DEAD IN % (Septoria tritici; 0.125 ppm AI, alone) | AVERAGE DEAD IN % (Septoria tritici; 0.25 ppm AI, alone) | AVERAGE DEAD IN % (Septoria tritici; 0.5 ppm AI, alone) | AVERAGE DEAD IN % (Septoria tritici; 1 ppm AI, alone) | AVERAGE DEAD IN % (Septoria tritici; 2 ppm AI, alone) | AVERAGE DEAD IN % Difenoconazole (Septoria tritici; Difenoconazole alone, 0.5 ppm AI) | AVERAGE DEAD IN % Difenoconazole (Septoria tritici; Difenoconazole alone, 1 ppm AI) | AVERAGE DEAD IN % Difenoconazole (Septoria tritici; Difenoconazole alone, 2 ppm AI) | AVERAGE DEAD IN % (Fusarium culmorum; alone, 2 PPM AI)
50%: AVERAGE DEAD IN % (Septoria tritici; 0.03125 ppm AI, alone) | AVERAGE DEAD IN % ([2]; 0.0078125 ppm AI)
50% and 100%: AVERAGE DEAD IN % (Rhizoctonia solani; applied alone, 1 ppm AI)
100%: AVERAGE DEAD IN % (Rhizoctonia solani; applied alone, 2 ppm AI)
50% and 70%: AVERAGE DEAD IN % (Rhizoctonia solani; applied alone, 0.5 ppm AI) | AVERAGE DEAD IN % Difenoconazole (Septoria tritici; Difenoconazole alone, 0.0625 ppm AI)
70%: AVERAGE DEAD IN % (Septoria tritici; 0.0625 ppm AI, alone) | AVERAGE DEAD IN % (Fusarium culmorum; single compound, 1 PPM AI, 48 hrs, 24° C.)

CC(C)C1C2CCC1c1c(NC(=O)c3cn(C)nc3C(F)F)cccc12 (stereo not drawn) [Isopyrazam, reference compound]
70% and 90% and 100%: AVERAGE DEAD IN % (Rhizoctonia solani; applied alone, 0.125 ppm AI)
90%: AVERAGE DEAD IN % (Rhizoctonia solani; applied alone, 0.25 ppm AI) | AVERAGE DEAD IN % (Rhizoctonia solani; single compound at 0.25 ppm AI) | AVERAGE DEAD IN % (Septoria tritici; 0.5 ppm AI, alone) | AVERAGE DEAD IN % Isopyrazam (Septoria tritici; Isopyrazam alone, 0.5 ppm AI) | AVERAGE DEAD IN % (Septoria tritici; alone, 0.5 ppm AI)
70%: AVERAGE DEAD IN % (Rhizoctonia solani; [3]) | AVERAGE DEAD IN % (Septoria tritici; 0.25 ppm AI, alone) | AVERAGE DEAD IN % (Septoria tritici; alone, 0.25 ppm AI)
50% and 70%: AVERAGE DEAD IN % ([2]; 0.0625 PPM AI)
20%: AVERAGE DEAD IN % (Septoria tritici; 0.0625 ppm AI, alone) | AVERAGE DEAD IN % Isopyrazam (Septoria tritici; Isopyrazam alone, 0.0625 ppm AI) | AVERAGE DEAD IN % (Septoria tritici; alone, 0.0625 ppm AI) | AVERAGE DEAD IN % ([2]; 0.03125 ppm AI) | AVERAGE DEAD IN % ([2]; 0.03125 PPM AI)
50%: AVERAGE DEAD IN % (Rhizoctonia solani; single compound at 0.0625 ppm AI) | AVERAGE DEAD IN % (Gaeumannomyces graminis; single compound at 2 ppm AI) | AVERAGE DEAD IN % (Septoria tritici; 0.125 ppm AI, alone) | AVERAGE DEAD IN % (Septoria tritici; alone, 0.125 ppm AI)
70% and 90%: AVERAGE DEAD IN % ([2]; 0.0625 ppm AI)
0%: AVERAGE DEAD IN % (Rhizoctonia solani; applied alone, 0.015625 ppm AI) | AVERAGE DEAD IN % (Rhizoctonia solani; single compound at 0.0078125 ppm AI) | AVERAGE DEAD IN % (Rhizoctonia solani; single compound at 0.015625 ppm AI) | AVERAGE DEAD IN % (Rhizoctonia solani; single compound at 0.03125 ppm AI) | AVERAGE DEAD IN % (Gaeumannomyces graminis; applied alone, 0.25 ppm AI) | AVERAGE DEAD IN % (Gaeumannomyces graminis; applied alone, 0.5 ppm AI) | AVERAGE DEAD IN % (Gaeumannomyces graminis; single compound at 0.5 ppm AI) | AVERAGE DEAD IN % (Septoria tritici; alone, 0.0078125 ppm AI) | AVERAGE DEAD IN % (Septoria tritici; alone, 0.015625 ppm AI) | AVERAGE DEAD IN % (Septoria tritici; alone, 0.03125 ppm AI) | AVERAGE DEAD IN % ([2]; 0.0078125 ppm AI) | AVERAGE DEAD IN % ([2]; 0.015625 ppm AI) | AVERAGE DEAD IN % ([2]; 0.015625 PPM AI)
90% and 70%: AVERAGE DEAD IN % Isopyrazam (Septoria tritici; Isopyrazam alone, 0.25 ppm AI)

C#CCOc1ccc(CCNC(=O)C(OCC#C)c2ccc(Cl)cc2)cc1OC (stereo not drawn) [Mandipropamid, reference compound]
0%: AVERAGE DEAD IN % (Gaeumannomyces graminis; single compound at 0.25 ppm AI) | AVERAGE DEAD IN % (Gaeumannomyces graminis; single compound at 0.5 ppm AI) | AVERAGE DEAD IN % (Gaeumannomyces graminis; single compound at 1 ppm AI)

COCC(=O)N(c1c(C)cccc1C)[C@H](C)C(=O)OC [Mefenoxam, reference compound]
70% and 90%: AVERAGE DEAD IN % (Pythium ultimum; single compound at 0.25 ppm AI)
100%: AVERAGE DEAD IN % (Pythium ultimum; single compound at 1 ppm AI) | AVERAGE DEAD IN % (Pythium ultimum; single compound at 2 ppm AI)
0%: AVERAGE DEAD IN % (Gaeumannomyces graminis; single compound at 0.25 ppm AI) | AVERAGE DEAD IN % (Gaeumannomyces graminis; single compound at 0.5 ppm AI) | AVERAGE DEAD IN % (Gaeumannomyces graminis; single compound at 1 ppm AI)
50% and 70%: AVERAGE DEAD IN % (Pythium ultimum; [3])
90% and 100%: AVERAGE DEAD IN % (Pythium ultimum; single compound at 0.5 ppm AI)
